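48-hour exposure; five concentrations; linearly interpolated endpoints. GI50 is the concentration that inhibits growth by half. The concentration for full growth arrest is given as TGI.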
What was measured:
Experiment in all cases: inhibition of tumour cell growth, NCI panel, 48 h
[1] = test system: CCRF-CEM leukemia
[2] = test system: HCC-2998 colon
[3] = test system: HS 578T breast
[4] = test system: NCI-H226 lung
[5] = test system: NCI/ADR-RES ovarian
[6] = test system: RPMI-8226 leukemia
[7] = test system: SK-MEL-2 melanoma
[8] = test system: SNB-19 CNS
[9] = test system: SW-620 colon
[10] = test system: TK-10 renal

| SMILES | GI50 [1] [µM] | TGI [1] [µM] | GI50 [2] [µM] | TGI [2] [µM] | GI50 [3] [µM] | TGI [3] [µM] | GI50 [4] [µM] | TGI [4] [µM] | GI50 [5] [µM] | TGI [5] [µM] | GI50 [6] [µM] | TGI [6] [µM] | GI50 [7] [µM] | TGI [7] [µM] | GI50 [8] [µM] | TGI [8] [µM] | GI50 [9] [µM] | TGI [9] [µM] | GI50 [10] [µM] | TGI [10] [µM] |
| --- | --- | --- | --- | --- | --- | --- | --- | --- | --- | --- | --- | --- | --- | --- | --- | --- | --- | --- | --- | --- |
| COC[C@H]1Cn2cc(-c3nc(Nc4ccnn4C)ncc3C)nc2C(=O)N1Cc1ccc(F)c(F)c1 | 29.3 | > 100 | 0.0673 | > 100 | 18.5 | > 100 | 25.8 | > 100 | > 100 | > 100 | 4.47 | > 100 | 0.0964 | > 100 | > 100 | > 100 | 0.156 | > 100 | 5.5 | > 100 |
| COc1ccc2nc3cc(Cl)ccc3c(NCCNCC(C)O)c2c1 (centres undefined) | 2.46 | 8.66 | 1.38 | 2.94 | 4.47 | 21.3 | 2.3 | 6.04 | 3.08 | 14 | 2.54 | 6.36 | 2.08 | 4.26 | 2.19 | 9.78 | 0.818 | 10.3 | 2.85 | 8.28 |
| COc1cc(-c2ccc3cc(OC)c(OC)c(OC)c3c2)cc(OC)c1OC | > 100 | > 100 | > 100 | > 100 | 15.4 | > 100 | > 100 | > 100 | 7.91 | > 100 |  |  | 16.6 | > 100 | 75.1 | > 100 |  |  | 27.9 | 84.3 |
| Nc1n[nH]c2cc(F)c([C@@H]3Nc4ccc5[nH]ncc5c4[C@H]4C5CCC(C5)[C@@H]34)cc12 (some centres undefined) | 0.176 | > 50 | 0.177 | 1.93 | 0.173 | 11.6 | 0.192 | 3.38 | 0.159 | 0.746 | 0.173 | 1.82 | 0.798 | 20.1 | 1.03 | > 35 | 0.188 | > 25 | 3.46 | > 50 |
| N#Cc1c[nH]n2c(N=Nc3ccc(Cl)cc3)c(O)nc12 | 31.1 | > 100 |  |  | 56.9 | > 100 | 18.5 | 43.3 | 25 | 83.8 | 25.7 | 95.3 | 52 | > 100 | 33.8 | > 100 | 47.9 | > 100 | 21.3 | 68.3 |
| CC1SC(c2ccc(F)cc2)N(NC(=O)C(O)c2ccccc2)C1=O (centres undefined) | > 100 | > 100 | > 100 | > 100 | > 100 | > 100 | > 100 | > 100 | > 100 | > 100 | > 100 | > 100 | > 100 | > 100 | > 100 | > 100 | > 100 | > 100 | > 100 | > 100 |

Reference: PubChem BioAssay (NCI)
